Source: patent publication US8119640B2, “Hedgehog pathway antagonists methods of use” (The Board of Trustees of the Leland Stanford Junior …, priority 2008, dated 2012)

System: FLAG-Gli1
Test: Immunostaining of FLAG-Gli1 line: FLAG-Gli1 localization
Assay type: cell-based, mouse
Conditions: Shh-LIGHT2 FLAG-Gli1 cells
Method: Immunostaining of FLAG-Gli lines and NIH-3T3 cells. The FLAG-Gli1-expressing or FLAG-Gli2-expressing clonal cell lines were seeded into 24-well plates (80,000 cells/well) containing poly-D-lysine-coated 12-mm glass coverslips. […] The cells were subsequently fixed in 4% paraformaldehyde for 10 min at room temperature followed by treatment with methanol at −20° C. for 2 to 5 min. The cells were washed with PBS, permeabilized with 0.2% Triton X-100 for 2 to 5 min, and then blocked with PBS containing 2% BSA for 3 h at room temperature. […] In order to quantify ciliary Gli2 localization, a circular region with diameter equal to the average width of cilia as determined by the anti-Arl13b antibody staining was manually placed at the distal end of each cilium. Regions were transferred from the anti-Arl13b antibody image to the anti-FLAG antibody image, and FLAG staining intensities within those areas were assessed. Between 40 and 80 cilia were analyzed for each condition. To normalize ciliary FLAG-Gli2 levels with respect to compound-dependent changes in total FLAG-Gli2 levels, the absolute average intensities for each condition were divided by the fold change in FLAG-Gli2 levels, as determined by the quantitative immunoblotting described above. Quantification of ciliary FLAG-Gli1 levels was performed in an analogous manner. […]

N#CC(C(=O)c1ccc(Cl)cc1Cl)=C1NC(=O)c2ccccc2N1 [Compound 18]
Ciliary FLAG-Gli1 levels: promoted accumulation of FLAG-Gli1 at the distal tip of this organelle relative to total FLAG-Gli1 levels
Subcellular localization of FLAG-Gli1: reduced cytoplasmic levels of the transcription factor but retained nuclear FLAG-Gli1
